Key:
tgfb1 mRNA = tgfb1 mRNA level by quantitative PCR in human aortic vascular smooth muscle cells; assay type: cell-based; settings: 24 hrs, normalised to TBP, vs vehicle
Protocol: (1995) Cardiovasc. Res. 29:848-55). […] The cells were then incubated for either 24 hrs or 72 hrs depending on the experiment. All treatment conditions were established in triplicate. The level of mRNA for tgfb1, tgfb2 and tgfb3 were estimated by quantitative PCR. The media was removed and RNA was carefully prepared using the Ambion RNAqueous4PCR kit (Ambion#1914) in accordance with the manufacturer's instructions. The purity of the RNA and the quantity was assessed spectrophotometrically. […] This analysis results in both a gel-like image as well as electrophoretic data. Indications of RNA degradation are: (a) decreasing ratio of ribosomal bands (b) additional peaks bellow the ribosomal bands (c) Decrease in overall RNA signal (d) shift towards shorter fragments. All the mRNA samples used in the experiments presented here passed this RNA quality control step. Next, the RNA was converted to cDNA using the ABI High-Capacity cDNA Archive Kit, in accordance with manufacturer's instructions. The qPCR assay was then set up as follow: all cDNA samples were diluted to 180 μl total volume using Molecular grade water. Samples were vortexed to ensure thorough mixing. cDNA was aliquoted into ABI 384 well plates using a multi-channel pipette, 4.5 μl of sample into each well. Samples were assayed in triplicate (that is, nine determinations in total were made for each condition, being three separate assays on each of three replicate culture wells). The assay mix and Universal Master Mix were prepared and aliquoted across the 384 well plates 5.5 μl in each well, using a single channel pipette. The final composition of each reaction (10 μl) being: Primer/Probe assay mix (×20)=0.5 μl; Universal Master Mix=5 μl; cDNA=4.5 μl. The plates were then heat sealed using Abgene clear seal strong plastic heat seals, and then cycled and scanned using the […] under the following conditions: 95° C. for 10 minutes to activate the AmpliTaq GOLD, then 40 cycles of: 95° C. for 15 Sec (Denaturation), 60° C. for 60 […]). […] Quantitative PCR was performed using several primer/probe sets. […] We used both commercially available primer/probe sets (ABI Taqman pre-validated assays), using both available sets in the ABI database for tgfb1 and tgfb2, as well as the single available set for tgfb3. In addition, we used our own manual design probe/primer set for each of tgfb1, tgfb2 and tgfb3. For normalisation, we used TATA-binding protein (TBP) as the primary normalisation standard, with GAPDH as an alternative for confirmation, using ABI Taqman pre-validated probe/primer sets. […] Neither TBP nor GAPDH mRNA levels are affected by TGF-beta and are therefore equally suitable, however TBP was selected as the primary normalisation standard because the absolute level of mRNA in most cell types is similar to that of the TGF-beta isoforms, resulting in lower errors on calculating the ratio, and improving the power of the experiment. In all quantitative PCR experiments, several additional controls were included: firstly, a control for each sample is run with no reverse transcription to ensure the mRNA sample is not contaminated with genomic DNA (although the manual design probe/primer sets were all selected to cross an exon/exon boundary, ensuring no detectable amplicon is produced from genomic DNA templates). Secondly, a control reaction is run using serial 2-fold dilutions of a standard cDNA preparation (prepared from commercially available IMAGE clones). This control ensures that the results for the unknown samples are obtained in the linear range of the amplification process, and are therefore truly quantitative. Failure of either control led to the repeat of the entire experiment. Typically, the half maximal signal was obtained after 20-30 amplification cycles. […]

TGF-beta activity = TGF-beta activity estimated by smooth muscle cell proliferation (CPD with/without neutralising anti-TGF-beta antibody); assay type: cell-based, human; settings: for TGF-beta activity: ratio of CPD in the absence vs presence of neutralising anti-TGF-beta antibody: 0 μM T, 72 hrs; for effect of lower doses on CPD and hence TGF-beta activity: doses below 10 μM Tamoxifen / below 100 μM aspirin
Protocol: The cells were cultured (37° C.; 5% CO2) in DMEM+20% foetal calf serum (FCS), and subcultured every 5 days at 1:2 dilution, using 0.02% trypsin/EDTA (Gibco).
For the experiments, the cells were subcultured into 12-well cluster plates at 1×10^5 cells/cm^2, and allowed to grow for 24 hrs. […] The cells were then incubated for either 24 hrs or 72 hrs depending on the experiment. All treatment conditions were established in triplicate.
Finally, TGF-beta activity was estimated by the direct effects on smooth muscle cell proliferation within the assay. For these experiments, the test agents were added, in triplicate, to cells both in the presence and absence of a neutralising antibody to TGF-beta (AB-100-NA; R&D Systems at 10 μg/ml, which is able to neutralise at least 25 ng/ml recombinant active TGF-beta1; R&D Systems). After 72 hrs incubation, the cells are washed and then released completely using 0.02% trypsin/EDTA (Gibco) at 37° C. for 10 mins, then counted manually using a haemocytometer. Importantly, the number of cells at 0 hrs must also be determined (using the same counting method, on a replicate set of three wells plated out specifically for the purpose). For each treatment condition, the TGF-beta-dependent inhibition of proliferation is expressed as the fold increase in the cumulative population doubling time in the absence of the neutralising antibody compared to the cumulative population doubling time in the presence of the neutralising antibody. […] Failure of either control led to the repeat of the experiment.

| SMILES | Level of tgfb1 mRNA, estimated by qPCR (tgfb1 mRNA; 10 μM A) [fold-change] | Level of tgfb1 mRNA, estimated by qPCR (tgfb1 mRNA; 33 μM A) [fold-change] | Level of tgfb1 mRNA, estimated by qPCR (tgfb1 mRNA; 100 μM A) [fold-change] | TGF-beta activity: ratio of CPD in the absence vs presence of neutralising anti-TGF-beta antibody (TGF-beta activity; 10 μM A) [fold] | TGF-beta activity: ratio of CPD in the absence vs presence of neutralising anti-TGF-beta antibody (TGF-beta activity; 33 μM A) [fold] | TGF-beta activity: ratio of CPD in the absence vs presence of neutralising anti-TGF-beta antibody (TGF-beta activity; 100 μM A) [fold] | TGF-beta activity: ratio of CPD in the absence vs presence of neutralising anti-TGF-beta antibody (TGF-beta activity; 100 μM A, listed as A) [fold] | effect of lower doses on CPD and hence TGF-beta activity (TGF-beta activity) | Level of tgfb1 mRNA, estimated by qPCR (tgfb1 mRNA; 3.3 μM T) [fold-change] | Level of tgfb1 mRNA, estimated by qPCR (tgfb1 mRNA; 10 μM T) [fold-change] | Level of tgfb1 mRNA, estimated by qPCR (tgfb1 mRNA; 33 μM T, listed as T) [fold-change] | Level of tgfb1 mRNA, estimated by qPCR (tgfb1 mRNA; 33 μM T, listed as TMX) |
| --- | --- | --- | --- | --- | --- | --- | --- | --- | --- | --- | --- | --- |
| CC(=O)Oc1ccccc1C(=O)O [Aspirin, acetylsalicylic acid] | 1.01 ± 0.04 | 0.93 ± 0.11 | 1.06 ± 0.08 | 1.05 ± 0.09 | 1.13 ± 0.17 | 1.25 | 1.25 ± 0.06 | no statistically significant effect |  |  |  |  |
| CC/C(=C(\c1ccccc1)c1ccc(OCCN(C)C)cc1)c1ccccc1 [Tamoxifen] |  |  |  |  |  |  |  | no statistically significant effect | 0.95 ± 0.16 | 1.27 ± 0.09 | 1.41 ± 0.08 | approximately 1.4 fold-change |
